Type in all cases: cell-based
Experiment [1] deals with hGLP-1R (Homo sapiens, UniProt P43220). The experiment in a line: Functional cAMP formation (HTRF) in HEK-293 clonal cells expressing hGLP-1R, 0.1% bovine casein, without or with 1.0% human serum albumin. The arrangement: expressed in transfected cells. Conditions: for EC50: geometric mean, read-out: hGLP-1R EC50, nM (SEM, n); for Emax: read-out: hGLP-1R Emax, % ± SEM. In short, it runs like this:
(§1)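 Readings of the HTRF 665/620 nm ratio, which falls as cAMP rises, were converted to nM cAMP using a standard curve after 30 min peptide exposure at 37° C.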

Experiment [2] concerns the target T1, hGCGR (Homo sapiens, UniProt P47871).
T1 construct: expressed in transfected cells
Put plainly: Functional cAMP formation (HTRF) in HEK-293 clonal cells expressing hGCGR, 0.1% bovine casein, without or with 1.0% human serum albumin. As to conditions: geometric mean, read-out: hGCGR EC50, nM (SEM, n). In short, it runs like this:
as §1

The target in experiment [3] is T2, hGIPR (Homo sapiens, UniProt P48546).
T2 construct: expressed in transfected cells
T2 sequence (P48546 22-466): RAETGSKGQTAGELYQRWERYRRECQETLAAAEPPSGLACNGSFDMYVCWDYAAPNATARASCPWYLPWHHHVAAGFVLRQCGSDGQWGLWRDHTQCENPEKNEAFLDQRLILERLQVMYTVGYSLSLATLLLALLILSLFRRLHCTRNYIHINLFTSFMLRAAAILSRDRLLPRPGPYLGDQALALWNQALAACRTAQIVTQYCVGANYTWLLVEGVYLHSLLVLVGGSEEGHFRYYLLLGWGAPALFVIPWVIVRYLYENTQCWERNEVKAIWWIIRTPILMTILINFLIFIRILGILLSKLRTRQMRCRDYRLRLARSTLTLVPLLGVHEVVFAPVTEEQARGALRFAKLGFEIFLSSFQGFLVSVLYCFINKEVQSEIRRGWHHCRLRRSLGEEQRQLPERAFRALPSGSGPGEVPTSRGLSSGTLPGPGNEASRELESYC
Put plainly: Functional cAMP formation (HTRF) in HEK-293 clonal cells expressing hGIPR, 0.1% bovine casein, without or with 1.0% human serum albumin. As to conditions: for EC50: geometric mean, read-out: hGIPR EC50, nM (SEM, n); for Emax: read-out: hGIPR Emax, % ± SEM. The procedure, abridged: as §1

Where [4] appears, read: 0.1% bovine casein and 1.0% human serum albumin, 37° C.
Where [5] appears, read: cAMP, incubated at 37° C., 0.1% bovine casein (no human serum albumin).
Where [6] appears, read: HEK293, 0.1% bovine casein and 1.0% human serum albumin, 37° C., percent of maximal response to GIP(1-42)NH2.
Where [7] appears, read: cAMP, 37° C., 0.1% bovine casein (no human serum albumin).

SMILES strings stand for the structures. Read-outs that look alike come from different tables or passages of the source. *1 amine or outer side, *2 acyl side, *3 side chain or, on linkers, in order; H or OH if unused. Where a SMILES comes first, the peptide text is derived from it. Side-chain parts run from the residue outwards. [ ]: non-standard residue; d: D form. The star is where a group is joined. αMePhe(2-F) = C[C@](N)(Cc1ccccc1F)C(=O)O; γGlu = O=C(O)[C@H](CCC(=O)[*:2])N[*:1]; C14 diacid = O=C(O)CCCCCCCCCCCCC(=O)*; αMeY = C[C@](N)(Cc1ccc(O)cc1)C(=O)O; 4Pal = N[C@@H](Cc1ccncc1)C(=O)O; αMeL = CC(C)C[C@](C)(N)C(=O)O; Orn = NCCC[C@H](N)C(=O)O; AEEA = NCCOCCOCC(=O)O; Aib = CC(C)(N)C(=O)O

T1 sequence (P47871 26-477): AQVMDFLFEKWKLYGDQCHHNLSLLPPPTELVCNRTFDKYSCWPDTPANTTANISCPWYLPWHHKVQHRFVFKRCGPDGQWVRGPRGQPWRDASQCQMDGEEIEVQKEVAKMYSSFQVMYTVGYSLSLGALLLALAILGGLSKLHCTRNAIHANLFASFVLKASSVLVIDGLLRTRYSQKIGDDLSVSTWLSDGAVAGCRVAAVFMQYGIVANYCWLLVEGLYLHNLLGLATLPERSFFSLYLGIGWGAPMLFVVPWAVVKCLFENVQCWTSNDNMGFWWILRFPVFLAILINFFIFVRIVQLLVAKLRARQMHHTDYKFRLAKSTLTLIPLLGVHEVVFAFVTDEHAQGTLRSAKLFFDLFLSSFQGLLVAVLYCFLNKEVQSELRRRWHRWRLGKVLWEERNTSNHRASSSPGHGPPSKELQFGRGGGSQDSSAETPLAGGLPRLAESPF
hGLP-1R, sequence (P43220 24-463): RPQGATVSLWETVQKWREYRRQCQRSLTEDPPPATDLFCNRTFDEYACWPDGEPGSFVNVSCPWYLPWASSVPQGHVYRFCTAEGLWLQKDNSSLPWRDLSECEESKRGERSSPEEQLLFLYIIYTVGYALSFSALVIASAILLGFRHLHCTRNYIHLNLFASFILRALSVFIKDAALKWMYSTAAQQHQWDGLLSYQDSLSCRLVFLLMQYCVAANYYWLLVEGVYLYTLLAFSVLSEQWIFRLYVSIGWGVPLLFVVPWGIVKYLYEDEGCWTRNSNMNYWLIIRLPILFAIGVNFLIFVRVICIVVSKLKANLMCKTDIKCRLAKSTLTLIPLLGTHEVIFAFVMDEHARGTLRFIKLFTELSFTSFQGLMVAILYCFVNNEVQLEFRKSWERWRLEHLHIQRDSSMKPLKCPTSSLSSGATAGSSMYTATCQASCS

For `CC[C@H](C)[C@H](NC(=O)[C@H](CC(C)C)NC(=O)[C@](C)(Cc1ccc(O)cc1)NC(=O)[C@@H](CCC(=O)O)NC(=O)[C@@H](NC(=O)[C@H](Cc1ccccc1)NC(=O)[C@H](CCC(=O)O)NC(=O)C(C)(C)NC(=O)[C@H](CCC(N)=O)NC(=O)[C@H](C)NC(=O)[C@H](CCCCNC(=O)COCCOCCNC(=O)COCCOCCNC(=O)CC[C@H](NC(=O)CCCCCCCCCCCCC(=O)O)C(=O)O)NC(=O)[C@H](CCCN)NC(=O)[C@H](CC(=O)O)NC(=O)[C@H](CC(C)C)NC(=O)[C@](C)(CC(C)C)NC(=O)[C@@H](NC(=O)[C@H](CO)NC(=O)[C@H](Cc1ccncc1)NC(=O)[C@H](CC(=O)O)NC(=O)[C@H](CO)NC(=O)[C@@H](NC(=O)[C@](C)(Cc1ccccc1F)NC(=O)[C@@H](NC(=O)CNC(=O)[C@H](CCC(=O)O)NC(=O)C(C)(C)NC(=O)[C@@H](N)Cc1ccc(O)cc1)[C@@H](C)O)[C@@H](C)O)[C@@H](C)CC)[C@@H](C)CC)C(=O)N[C@@H](CCC(=O)O)C(=O)NCC(=O)NCC(=O)N[C@@H](CCCCNC(=O)COCCOCCNC(=O)COCCOCCNC(=O)CC[C@H](NC(=O)CCCCCCCCCCCCC(=O)O)C(=O)O)C(=O)N[C@@H](CO)C(=O)N[C@@H](CO)C(=O)NCC(=O)N[C@@H](CCCN)C(=O)N1CCC[C@H]1C(=O)N1CCC[C@H]1C(=O)N1CCC[C@H]1C(=O)N[C@@H](CCCN)C(N)=O` [Example 155] (H-Y[Aib]EGT[αMePhe(2-F)]TSD[4Pal]SI[αMeL]LD[Orn]K([AEEA-AEEA-γGlu-C14 diacid])AQ[Aib]EFI[dE][αMeY]LIEGGK([AEEA-AEEA-γGlu-C14 diacid])SSG[Orn]PPP[Orn]-NH2; N-terminus assumed), the EC50 in experiment [1] (setting [4]) was 34.6 nM; in experiment [1] (setting [5]) it was 0.912 nM; in experiment [2] (setting [4]), more than 9950 nM; in experiment [2] (setting [5]), more than 9950 nM; in experiment [3] (setting [4]), 1.25 nM; in experiment [3] (setting [5]), 0.0309 nM. Moreover, the maximum response (Emax) turned out to be 99 ± 5.16% in experiment [1] (HEK293, percent of maximal response to GLP-1(7-36)NH2, 37° C., 0.1% bovine casein, arithmetic mean); 96.5 ± 1.04% in experiment [3] (setting [6]); 96.6 ± 7.55% in experiment [3] (HEK293, percent of maximal response to GIP(1-42)NH2, 37° C., 0.1% bovine casein, arithmetic mean).
As for `CC[C@H](C)[C@H](NC(=O)[C@H](CCCN)NC(=O)[C@H](CC(=O)O)NC(=O)[C@H](CC(C)C)NC(=O)[C@](C)(CC(C)C)NC(=O)[C@@H](NC(=O)[C@](C)(CO)NC(=O)[C@H](Cc1ccc(O)cc1)NC(=O)[C@H](CC(=O)O)NC(=O)[C@H](CO)NC(=O)[C@@H](NC(=O)[C@](C)(Cc1ccccc1F)NC(=O)[C@@H](NC(=O)CNC(=O)[C@H](CCC(=O)O)NC(=O)C(C)(C)NC(=O)[C@@H](N)Cc1ccc(O)cc1)[C@@H](C)O)[C@@H](C)O)[C@@H](C)CC)C(=O)N[C@@H](C)C(=O)N[C@@H](CCC(N)=O)C(=O)NC(C)(C)C(=O)N[C@@H](CCC(=O)O)C(=O)N[C@@H](Cc1ccccc1)C(=O)N[C@H](C(=O)N[C@@H](CCCCNC(=O)COCCOCCNC(=O)COCCOCCNC(=O)CC[C@H](NC(=O)CCCCCCCCCCCCC(=O)O)C(=O)O)C(=O)N[C@@](C)(Cc1ccc(O)cc1)C(=O)N[C@@H](CC(C)C)C(=O)N[C@H](C(=O)N[C@@H](CCCCNC(=O)COCCOCCNC(=O)COCCOCCNC(=O)CC[C@H](NC(=O)CCCCCCCCCCCCC(=O)O)C(=O)O)C(=O)NCC(=O)NCC(=O)N1CCC[C@H]1C(=O)N[C@@H](CO)C(=O)N[C@@H](CO)C(=O)NCC(=O)N[C@@H](C)C(=O)N1CCC[C@H]1C(=O)N1CCC[C@H]1C(=O)N1CCC[C@H]1C(=O)N[C@@H](CO)C(N)=O)[C@@H](C)CC)[C@@H](C)CC` [Example 303], the maximum response (Emax) in experiment [1] (HEK293, 0.1% bovine casein and 1.0% human serum albumin, 37° C., percent of maximal response to GLP-1(7-36)NH2) amounted to 111%; in experiment [3] (setting [6]), 89.8%; in experiment [3] (HEK293, cAMP, 37° C., 0.1% bovine casein, percent of maximal response to GIP(1-42)NH2, arithmetic mean) it was 100%. The EC50 in experiment [1] (setting [7]) was 0.389 nM; in experiment [2] (setting [4]) it was more than 9950 nM; in experiment [2] (setting [7]) it was more than 9950 nM; in experiment [3] (setting [7]), 0.0178 nM.
